“And” between values parts separate entries of the source, which are not always exact repeats. Equal entries are not always repeated.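 Tested at 5 concentrations; 48 h exposure; 96-well plates; endpoints linearly interpolated, else capped at highest concentration. GI50 = concentration required for 50% inhibition of growth. Definition used: TGI = concentration required for complete inhibition of growth.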
What was measured:
Test in all cases: NCI anticancer screen, dose series, 48 h
SR leukemia = system: SR leukemia
LOX IMVI melanoma = system: LOX IMVI melanoma
ACHN renal = system: ACHN renal
SF-268 CNS = system: SF-268 CNS
IGROV1 ovarian = system: IGROV1 ovarian
SK-MEL-2 melanoma = system: SK-MEL-2 melanoma
HOP-62 NSCLC = system: HOP-62 NSCLC
OVCAR-5 ovarian = system: OVCAR-5 ovarian
HCT-116 colon = system: HCT-116 colon
HCC-2998 colon = system: HCC-2998 colon

SMILES	GI50 (SR leukemia)	TGI (SR leukemia) [µM]	GI50 (LOX IMVI melanoma)	TGI (LOX IMVI melanoma) [µM]	GI50 (ACHN renal) [µM]	TGI (ACHN renal) [µM]	GI50 (SF-268 CNS)	TGI (SF-268 CNS)	GI50 (IGROV1 ovarian) [µM]	TGI (IGROV1 ovarian) [µM]	GI50 (SK-MEL-2 melanoma) [µM]	TGI (SK-MEL-2 melanoma)	GI50 (HOP-62 NSCLC)	TGI (HOP-62 NSCLC)	GI50 (OVCAR-5 ovarian) [µM]	TGI (OVCAR-5 ovarian) [µM]	GI50 (HCT-116 colon) [µM]	TGI (HCT-116 colon) [µM]	GI50 (HCC-2998 colon) [µM]	TGI (HCC-2998 colon) [µM]
Cc1ccc(C(=O)c2oc3ccc4c(C)cc(=O)oc4c3c2C)cc1	25.1 µM	> 100	2.45 µM	19.1	3.65	94.3	10.4 µM	98.8 µM	13.8	> 100	35	> 100 µM	12.2 µM	> 100 µM	11.2	> 100	43.8	> 100	24	> 100
CCN(CC)CCC1CC/C(=C\c2ccc(OC)cc2)C1=O (centres undefined)	–	> 100	–	> 100	–	> 100	–	> 100 µM	–	> 100	–	> 100 µM	–	> 100 µM	–	> 100	–	> 100	–	> 100
Clc1nc(Oc2ccccc2)nc(-c2cn(-c3ccccc3)c3ccccc23)n1	0.241 µM	0.849	2.44 µM	5.93	8.16	21.1	4.28 µM	13.9 µM	2.45	6.26	4.66	18.5 µM	15.2 µM	29.4 µM	22.9	52.7	3.64	11.8	13.8	27.3
COc1ccc(NC(=O)C2C(=O)N(c3ccc(OC)cc3)C(=O)/C2=N/O)cc1 (centres undefined)	–	> 100	–	> 100	–	43.2	–	52.7 µM	–	> 80.7	–	> 86.8 µM	–	43.3 µM	–	> 100	–	38.3	–	47.2
COc1ccc(-c2c(C3=NCCN3)nnn2-c2ccccc2)cc1	–	> 100	–	> 100	–	> 100	–	> 100 µM	–	> 100	–	> 100 µM	–	> 100 µM	–	> 100	–	> 100	–	> 100
CN1CCN(CCSC2Cc3cc(Cl)ccc3Sc3ccccc32)CC1 (centres undefined)	–	19.9	–	14.1	–	19.8	–	25.6 µM	–	25.6	–	3.75 µM	–	26.7 µM	–	18.2	–	15.3	–	15.3
C[CH2][Sn]1([CH2]C)[O]C(=O)[O][Sn]([CH2]C)([CH2]C)[O]1	30.8 µM	> 100	17.2 µM	33	> 50.4	> 64.6	18.9 µM	36.6 µM	> 57.6	> 87.8	15.8	29.6 µM	41.8 µM	> 68.2 µM	> 45.8	> 59.5	> 42.9	> 57.7	60	> 100
Cc1nc(N)sc1C(=O)/C=C/c1ccc(/C=C/C(=O)c2sc(NC(=O)CCCCCCCCC(=O)Nc3nc(C)c(C(=O)/C=C/c4ccc(/C=C/C(=O)c5sc(N)nc5C)cc4)s3)nc2C)cc1	–	> 100	–	> 100	–	> 100	–	> 100 µM	–	> 100	–	> 100 µM	–	> 100 µM	–	> 100	–	> 100	–	> 100
O=C(Oc1ccc(O)c2c(=O)n3c(cc12)[nH]c1ccccc13)c1ccccc1	25.9 µM	82.2	4.77 µM	20.1	7.55	23.6	61 µM	> 100 µM	10.6	24.6	21	> 100 µM	22.4 µM	54.5 µM	28.4	73.2	11.3	23.5	18.6	36.9
COC(=O)CCC/C=C\C[C@H]1C=CC(=O)/C1=C/C[C@@H](O)CCc1cccc(C(F)(F)F)c1	0.975 µM	5.53	0.955 µM	2.24	1.83	3.54	3.09 µM	11.4 µM	3.71	13.9	3.19	11.5 µM	3.32 µM	9.15 µM	3.79	12.7	1.78	4	1.83	3.35
COc1cc(-c2cnn(C)c2)ccc1Nc1ncc2ccnc(N[C@@H](C)C(C)(C)C)c2n1	0.695 µM	> 100	5.43 µM	> 100	4.29	> 100	> 41.5 µM	> 100 µM	> 100	> 100	> 100	> 100 µM	> 38.3 µM	> 100 µM	97.8	> 100	0.467	> 100	> 100	> 100
COc1ccc2c(c1)sc1nc(-c3ccccc3)c(-c3ccsc3)n12	2.02 µM	> 100	5.25 µM	> 100	6.76	> 100	8.54 µM	> 100 µM	6.53	> 100	9.72	> 100 µM	7.86 µM	> 100 µM	4.49	> 100	4.18	> 100	4.86	93.1
CC(=O)OCC1OC(n2c(-c3ccccc3)cc(-c3ccco3)c(C#N)c2=O)C(OC(C)=O)C(OC(C)=O)C1OC(C)=O (centres undefined)	> 100 µM and 46.1 µM	> 100	2.23 µM and 14.6 µM	> 100	–	> 100	17.4 µM and 35 µM	64.2 µM and > 100 µM	–	> 100	–	36.9 µM and > 100 µM	> 100 µM and 22.1 µM	> 100 µM and 65.4 µM	–	> 100	–	> 100	–	> 100
COc1cc2c(cc1C)NC(=O)/C2=C\c1cc(OC)c(OC)c(OC)c1	11.5 µM	47.4	> 100 µM	> 100	64.1	> 100	> 100 µM	> 100 µM	72.1	> 100	34.3	> 100 µM	22.1 µM	53.9 µM	32.2	> 100	33	> 100	> 100	> 100
O=[N+]([O-])c1c(/C=N/Nc2ccccc2)oc(-c2ccc3c(c2)OCO3)c1-c1ccc2c(c1)OCO2	–	29.8	–	18.1	–	> 100	–	> 100 µM	–	> 100	–	24.2 µM	–	> 100 µM	–	> 100	–	> 100	–	34.3

Source: PubChem BioAssay (NCI)
